This passage reports Activity results from ChEMBL document CHEMBL2073846, “Pharmacokinetic study of the hepatobiliary transport of indomethacin” (Pharm Res, 2000).

The target of data set [1] is T1, ATP-binding cassette sub-family C member 2 (Rattus norvegicus, UniProt Q63120). The data set is described as follows: TP_TRANSPORTER: biliary excretion in EHBR rat. It is filed as functional, organism-based, Bile. The note with it: in vivo.
Data set [2] concerns the target T1, ATP-binding cassette sub-family C member 2. Nature of the data set: TP_TRANSPORTER: biliary excretion in SD rat. Type of data set: functional, organism-based, Sprague-Dawley, Bile. The following applies: in vivo.
The target in data set [3] is T2, Solute carrier organic anion transporter family member 1A1 (Rattus norvegicus, UniProt P46720).
T2 sequence (P46720 whole entry): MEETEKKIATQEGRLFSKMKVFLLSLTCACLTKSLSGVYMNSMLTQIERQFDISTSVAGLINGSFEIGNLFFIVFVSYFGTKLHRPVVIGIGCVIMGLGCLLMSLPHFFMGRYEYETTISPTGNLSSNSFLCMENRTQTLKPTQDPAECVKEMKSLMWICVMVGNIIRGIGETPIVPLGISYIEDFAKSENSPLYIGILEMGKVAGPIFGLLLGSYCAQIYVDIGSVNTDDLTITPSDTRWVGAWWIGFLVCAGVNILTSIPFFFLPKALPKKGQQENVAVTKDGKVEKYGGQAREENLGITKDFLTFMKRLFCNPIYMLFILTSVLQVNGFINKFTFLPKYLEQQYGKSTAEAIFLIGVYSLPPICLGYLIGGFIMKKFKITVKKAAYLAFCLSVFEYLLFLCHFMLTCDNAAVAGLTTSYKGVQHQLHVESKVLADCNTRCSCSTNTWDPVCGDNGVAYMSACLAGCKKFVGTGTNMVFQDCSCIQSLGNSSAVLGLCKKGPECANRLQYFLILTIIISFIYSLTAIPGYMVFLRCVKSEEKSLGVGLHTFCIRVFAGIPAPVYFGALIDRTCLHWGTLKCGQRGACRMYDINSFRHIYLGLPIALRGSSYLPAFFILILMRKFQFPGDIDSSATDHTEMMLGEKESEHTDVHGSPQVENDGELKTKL
Nature of the data set: TP_TRANSPORTER: uptake in Oatp1-expressing COS-7 cells. Type of data set: functional, cell-based. The note with it: monkey.

Data set [4] concerns the target T3, Hepatic sodium/bile acid cotransporter (Rattus norvegicus, UniProt P26435).
T3 sequence (P26435 whole entry): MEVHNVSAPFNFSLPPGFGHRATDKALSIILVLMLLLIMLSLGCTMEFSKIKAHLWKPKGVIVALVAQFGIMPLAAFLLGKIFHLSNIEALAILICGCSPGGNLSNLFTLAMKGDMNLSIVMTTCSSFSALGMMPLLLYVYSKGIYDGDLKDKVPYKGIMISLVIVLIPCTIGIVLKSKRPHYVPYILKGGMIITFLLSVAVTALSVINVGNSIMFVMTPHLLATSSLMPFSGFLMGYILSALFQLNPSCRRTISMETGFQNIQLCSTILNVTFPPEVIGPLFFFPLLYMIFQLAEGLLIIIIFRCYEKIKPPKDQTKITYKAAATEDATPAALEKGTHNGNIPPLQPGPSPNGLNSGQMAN
Nature of the data set: TP_TRANSPORTER: uptake in Ntcp-expressing COS-7 cells. It is filed as functional, cell-based. The note with it: monkey.

T1 sequence (Q63120 whole entry): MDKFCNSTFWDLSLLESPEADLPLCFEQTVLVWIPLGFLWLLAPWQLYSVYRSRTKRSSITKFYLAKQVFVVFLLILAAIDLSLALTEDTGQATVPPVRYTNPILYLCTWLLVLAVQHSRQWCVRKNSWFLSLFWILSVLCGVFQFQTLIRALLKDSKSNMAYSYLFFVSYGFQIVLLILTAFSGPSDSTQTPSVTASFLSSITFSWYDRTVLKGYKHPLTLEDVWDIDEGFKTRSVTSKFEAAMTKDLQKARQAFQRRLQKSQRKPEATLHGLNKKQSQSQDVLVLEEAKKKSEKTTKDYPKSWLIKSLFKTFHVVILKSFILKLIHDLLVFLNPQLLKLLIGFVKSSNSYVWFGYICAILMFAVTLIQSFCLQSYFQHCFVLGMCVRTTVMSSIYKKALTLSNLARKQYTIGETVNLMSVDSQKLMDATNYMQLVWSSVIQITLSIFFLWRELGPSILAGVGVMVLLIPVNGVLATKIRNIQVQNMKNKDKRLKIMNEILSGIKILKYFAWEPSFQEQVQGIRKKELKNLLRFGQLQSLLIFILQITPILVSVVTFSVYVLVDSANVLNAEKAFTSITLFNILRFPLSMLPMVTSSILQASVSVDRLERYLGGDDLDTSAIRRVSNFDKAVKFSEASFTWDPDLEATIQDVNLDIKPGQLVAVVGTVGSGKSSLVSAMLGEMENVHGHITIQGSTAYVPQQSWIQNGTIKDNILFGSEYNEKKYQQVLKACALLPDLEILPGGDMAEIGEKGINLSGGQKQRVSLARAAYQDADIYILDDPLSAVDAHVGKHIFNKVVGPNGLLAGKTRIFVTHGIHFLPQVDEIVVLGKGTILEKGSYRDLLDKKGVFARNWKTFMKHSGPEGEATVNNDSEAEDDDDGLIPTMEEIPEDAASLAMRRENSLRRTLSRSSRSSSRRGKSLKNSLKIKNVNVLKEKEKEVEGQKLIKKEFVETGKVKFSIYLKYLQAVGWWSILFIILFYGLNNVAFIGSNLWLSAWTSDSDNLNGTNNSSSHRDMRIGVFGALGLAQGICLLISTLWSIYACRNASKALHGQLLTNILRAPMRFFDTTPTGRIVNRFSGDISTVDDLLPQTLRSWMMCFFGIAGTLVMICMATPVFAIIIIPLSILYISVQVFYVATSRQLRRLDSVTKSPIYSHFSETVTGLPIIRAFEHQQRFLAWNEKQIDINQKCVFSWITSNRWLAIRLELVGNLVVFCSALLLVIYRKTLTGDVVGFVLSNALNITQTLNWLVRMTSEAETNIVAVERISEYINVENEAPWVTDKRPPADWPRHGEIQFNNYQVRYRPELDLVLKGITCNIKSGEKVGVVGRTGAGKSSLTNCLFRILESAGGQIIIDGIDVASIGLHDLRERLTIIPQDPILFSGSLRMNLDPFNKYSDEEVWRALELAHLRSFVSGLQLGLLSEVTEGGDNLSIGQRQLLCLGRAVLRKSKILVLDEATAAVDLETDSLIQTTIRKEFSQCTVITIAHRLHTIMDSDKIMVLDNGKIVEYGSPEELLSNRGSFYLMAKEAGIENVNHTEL

`COc1ccc2c(c1)c(CC(=O)O[C@@H]1O[C@H](C(=O)O)[C@@H](O)[C@H](O)[C@H]1O)c(C)n2C(=O)c1ccc(Cl)cc1` [INDOMETHACIN GLUCURONIDE]: the Activity result in data set [1] and in data set [2] was “substrate [+]” throughout.
Take `COc1ccc2c(c1)c(CC(=O)O)c(C)n2C(=O)c1ccc(Cl)cc1` [INDOMETHACIN]: the Activity result in data set [1], in data set [3], in data set [2] and in data set [4] was “is not a substrate [-]” throughout.
